One test deals with T1, EGFR mutant L858R/T790M (Homo sapiens, UniProt P00533, L858R/T790M).
T1 construct: truncated human JAK3, EGFR mutants such as del E746-A750; purchased Carna Biosciences
Kind of test: Kinase inhibition assay, EGFR L858R/T790M.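 Note: truncated human enzyme preincubated two hours with compound, then one hour with one millimolar ATP and ULight-PolyGT peptide, Europium-labeled antibody detection, IC50.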 The note with it: read-out: EGFR mutants L858R/T790M. In kind it is biochemical.

For a further test, the target named is T2, EGFR mutant T790M (Homo sapiens, UniProt P00533, T790M).
T2 construct: truncated human JAK3, EGFR mutants such as del E746-A750; purchased Carna Biosciences
The test can be described thus: Kinase inhibition assay, EGFR mutant T790M.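 Note: truncated human EGFR mutant enzyme preincubated two hours with compound, then ATP plus ULight-PolyGT peptide for one hour, Europium-labeled antibody LANCE detection, IC50.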 The note with it: biochemical potency.

The target in another test is T3, EGFR mutant L858R (Homo sapiens, UniProt P00533, L858R).
T3 construct: truncated human JAK3, EGFR mutants such as del E746-A750; purchased Carna Biosciences
The test can be described thus: Kinase inhibition assay, EGFR L858R.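 Note: truncated human EGFR L858R kinase with compound preincubation, ULight-PolyGT peptide phosphorylation read by Europium-antibody Lance detection, IC50.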 The note with it: read-out: EGFR mutants L858R. The test is classed as biochemical.

A further test has as its target T4, SYK (Homo sapiens, UniProt P43405).
T4 construct: Purified human, full-length SYK, KDR; purchased Carna Biosciences
The test can be described thus: Kinase inhibition assay, SYK.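 Note: purified full-length human SYK pre-incubated 30 min with compound, then ULight-TK peptide phosphorylation for 1 h, detected with Europium-labeled antibody in Lance buffer.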 The test is classed as biochemical. The note with it: biochemical potency.

The target in a further test is T5, EGFR mutant Del19/T790M (Homo sapiens, UniProt P00533, DEL746-750/T790M).
T5 construct: truncated human JAK3, EGFR mutants such as del E746-A750; purchased Carna Biosciences
Kind of test: Kinase inhibition assay, EGFR del E746-A750/T790M. The test is classed as biochemical. The conditions noted are these: read-out: EGFR mutants Del19/T790M.

Test [1] concerns the target T6, EGFR mutant Del19 (E746-A750) (Homo sapiens, UniProt P00533, DEL746-750).
T6 construct: truncated human JAK3, EGFR mutants such as del E746-A750; purchased Carna Biosciences
Kind of test: Kinase inhibition assay, EGFR del E746-A750.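 Note: truncated human EGFR mutant kinase, two-hour preincubation with compound, then one-hour reaction with ATP and ULight-PolyGT peptide, LANCE Europium-antibody phosphorylation readout, IC50.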 In kind it is biochemical. The conditions noted are these: read-out: EGFR mutants Del19 (E746-A750).

Bounds are passed on as bounds.

T3 sequence (P00533 669-1210 L858R limits assumed): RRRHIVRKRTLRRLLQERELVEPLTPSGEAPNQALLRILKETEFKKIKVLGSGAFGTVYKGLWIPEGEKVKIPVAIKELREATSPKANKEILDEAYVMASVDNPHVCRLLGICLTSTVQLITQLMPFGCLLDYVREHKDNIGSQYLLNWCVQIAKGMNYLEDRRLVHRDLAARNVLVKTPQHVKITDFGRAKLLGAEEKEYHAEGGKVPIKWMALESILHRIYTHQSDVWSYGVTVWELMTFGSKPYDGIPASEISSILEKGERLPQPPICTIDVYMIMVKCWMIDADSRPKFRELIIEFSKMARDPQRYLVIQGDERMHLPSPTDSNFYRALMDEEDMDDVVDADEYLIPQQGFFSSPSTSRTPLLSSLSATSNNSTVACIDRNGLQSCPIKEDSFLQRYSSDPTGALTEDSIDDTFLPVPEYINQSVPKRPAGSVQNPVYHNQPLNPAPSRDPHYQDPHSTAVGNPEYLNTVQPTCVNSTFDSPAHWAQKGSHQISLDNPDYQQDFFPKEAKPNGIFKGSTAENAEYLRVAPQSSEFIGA
T6 sequence (P00533 with tags, fused parts or gaps DEL746-750 limits assumed): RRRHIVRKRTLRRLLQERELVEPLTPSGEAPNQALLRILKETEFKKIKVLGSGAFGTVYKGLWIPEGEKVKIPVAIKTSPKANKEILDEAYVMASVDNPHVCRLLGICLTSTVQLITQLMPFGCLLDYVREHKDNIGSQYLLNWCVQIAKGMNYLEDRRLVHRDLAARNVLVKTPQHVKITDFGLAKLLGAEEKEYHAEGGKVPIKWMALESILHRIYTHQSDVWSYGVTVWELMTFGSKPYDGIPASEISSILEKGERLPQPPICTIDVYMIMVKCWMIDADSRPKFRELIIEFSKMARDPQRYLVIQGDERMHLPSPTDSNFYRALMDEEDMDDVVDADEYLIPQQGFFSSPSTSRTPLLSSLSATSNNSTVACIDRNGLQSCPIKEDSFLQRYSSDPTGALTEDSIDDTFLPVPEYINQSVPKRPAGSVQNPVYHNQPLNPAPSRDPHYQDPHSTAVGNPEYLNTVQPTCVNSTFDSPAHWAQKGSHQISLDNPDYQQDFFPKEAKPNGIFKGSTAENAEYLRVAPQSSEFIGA
T1 sequence (P00533 669-1210 T790M/L858R limits assumed): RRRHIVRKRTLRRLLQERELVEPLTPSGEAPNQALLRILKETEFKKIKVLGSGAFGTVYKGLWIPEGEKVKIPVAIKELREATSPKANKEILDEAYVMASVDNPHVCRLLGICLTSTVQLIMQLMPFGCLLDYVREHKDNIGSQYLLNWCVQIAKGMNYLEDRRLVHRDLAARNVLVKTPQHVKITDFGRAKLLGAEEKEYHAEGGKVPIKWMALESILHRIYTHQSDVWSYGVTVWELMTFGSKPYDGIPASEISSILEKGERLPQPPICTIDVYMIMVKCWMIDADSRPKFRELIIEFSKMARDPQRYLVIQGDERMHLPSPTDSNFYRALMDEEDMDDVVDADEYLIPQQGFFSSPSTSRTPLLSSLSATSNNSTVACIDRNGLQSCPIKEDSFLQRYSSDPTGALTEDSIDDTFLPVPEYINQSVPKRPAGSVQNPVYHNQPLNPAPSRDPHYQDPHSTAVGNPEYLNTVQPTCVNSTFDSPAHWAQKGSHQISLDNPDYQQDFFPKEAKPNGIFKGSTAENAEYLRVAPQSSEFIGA
T5 sequence (P00533 with tags, fused parts or gaps DEL746-750/T790M limits assumed): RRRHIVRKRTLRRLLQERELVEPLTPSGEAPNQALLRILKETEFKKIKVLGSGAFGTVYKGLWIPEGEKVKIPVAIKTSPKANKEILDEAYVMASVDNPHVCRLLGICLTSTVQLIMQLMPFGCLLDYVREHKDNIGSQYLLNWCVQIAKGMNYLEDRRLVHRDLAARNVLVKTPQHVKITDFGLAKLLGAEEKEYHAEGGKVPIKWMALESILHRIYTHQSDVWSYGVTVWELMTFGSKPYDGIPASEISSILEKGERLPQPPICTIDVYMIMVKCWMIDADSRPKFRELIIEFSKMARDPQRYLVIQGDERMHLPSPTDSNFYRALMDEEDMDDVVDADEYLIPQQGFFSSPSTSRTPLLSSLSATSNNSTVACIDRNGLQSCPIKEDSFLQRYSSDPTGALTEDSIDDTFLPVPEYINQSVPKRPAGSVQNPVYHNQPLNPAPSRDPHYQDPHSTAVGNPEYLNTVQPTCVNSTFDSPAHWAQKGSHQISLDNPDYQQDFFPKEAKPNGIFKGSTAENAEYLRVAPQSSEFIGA
T2 sequence (P00533 669-1210 T790M limits assumed): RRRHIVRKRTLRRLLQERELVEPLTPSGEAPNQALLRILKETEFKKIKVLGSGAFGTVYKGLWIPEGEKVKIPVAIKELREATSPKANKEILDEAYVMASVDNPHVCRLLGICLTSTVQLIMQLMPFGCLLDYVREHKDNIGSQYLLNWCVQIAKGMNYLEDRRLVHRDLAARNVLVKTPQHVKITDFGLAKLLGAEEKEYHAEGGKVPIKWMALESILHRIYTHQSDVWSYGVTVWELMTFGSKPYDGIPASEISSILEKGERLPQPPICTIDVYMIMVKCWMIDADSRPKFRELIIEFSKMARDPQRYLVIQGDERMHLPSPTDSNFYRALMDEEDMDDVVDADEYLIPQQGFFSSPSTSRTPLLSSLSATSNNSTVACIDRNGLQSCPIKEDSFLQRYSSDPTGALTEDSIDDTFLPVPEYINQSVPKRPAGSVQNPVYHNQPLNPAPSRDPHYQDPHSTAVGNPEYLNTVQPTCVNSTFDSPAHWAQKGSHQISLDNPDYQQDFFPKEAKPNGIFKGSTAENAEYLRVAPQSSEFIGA

With `C=CC(=O)Nc1cc(Nc2ncc(C)c(-n3cc(CN4CC(O)C4)c(C)n3)n2)c(OC)cc1N(C)CCN(C)C` [Compound 31, N-(2-((2-(dimethylamino)ethyl)(methyl)amino)-5-(4-(4-((3-hydroxyazetidin-1-yl)methyl)-3-methyl-1H-pyrazol-1-yl)-5-methylpyrimidin-2-ylamino)-4-methoxyphenyl)acrylamide], the IC50 on EGFR mutant L858R/T790M is less than 20 nM; on EGFR mutant T790M, less than 20 nM; at EGFR mutant L858R, less than 20 nM; on SYK, 20 to 200 nM; on EGFR mutant Del19/T790M, less than 20 nM; in test [1] it was less than 20 nM.

As for `C=CC(=O)Nc1cc(Nc2nccc(-n3cc(CN(C)C)c(-c4ccccc4)n3)n2)c(OC)cc1N1CCN(C(C)=O)CC1` [Compound 135, N-(2-(4-acetylpiperazin-1-yl)-5-(4-(4-((dimethylamino)methyl)-3-phenyl-1H-pyrazol-1-yl)pyrimidin-2-ylamino)-4-methoxyphenyl)acrylamide], the IC50 at EGFR mutant L858R/T790M was less than 20 nM; at EGFR mutant T790M it was less than 20 nM; on EGFR mutant L858R it was less than 20 nM; on SYK it was more than 1000 nM; on EGFR mutant Del19/T790M, less than 20 nM; in test [1] it was less than 20 nM.

In the case of `C=CC(=O)Nc1cc(Nc2ncc(C)c(-n3cc(CN4CCOCC4)cn3)n2)c(OC)cc1N1CCN(C)CC1` [Compound 33, N-(4-methoxy-5-(5-methyl-4-(4-(morpholinomethyl)-1H-pyrazol-1-yl)pyrimidin-2-ylamino)-2-(4-methylpiperazin-1-yl)phenyl)acrylamide], the IC50 was 20 to 200 nM at EGFR mutant L858R/T790M; less than 20 nM at EGFR mutant T790M; 20 to 200 nM at EGFR mutant L858R; more than 1000 nM against SYK; less than 20 nM at EGFR mutant Del19/T790M; 20 to 200 nM in test [1].

Turning to `C=CC(=O)Nc1cc(Nc2nccc(-n3cc(CN4CC(OC)C4)c(C)n3)n2)c(OC)cc1N1CCOCC1` [Compound 44, N-(4-methoxy-5-(4-(4-((3-methoxyazetidin-1-yl)methyl)-3-methyl-1H-pyrazol-1-yl)pyrimidin-2-ylamino)-2-morpholinophenyl)acrylamide], the IC50 is 20 to 200 nM on EGFR mutant L858R/T790M; 201 to 1000 nM against EGFR mutant T790M; 20 to 200 nM on EGFR mutant L858R; more than 1000 nM against SYK; 20 to 200 nM on EGFR mutant Del19/T790M; 20 to 200 nM in test [1].

As for `C=CC(=O)Nc1cc(Nc2nccc(-n3cc(CN(C)C)c(C4CC4)n3)n2)c(OC)cc1N(C)C1COC1` [Compound 108, N-(5-(4-(3-cyclopropyl-4-((dimethylamino)methyl)-1H-pyrazol-1-yl)pyrimidin-2-ylamino)-4-methoxy-2-(methyl(oxetan-3-yl)amino)phenyl)acrylamide], the IC50 is less than 20 nM at EGFR mutant L858R/T790M; less than 20 nM on EGFR mutant T790M; less than 20 nM on EGFR mutant L858R; 20 to 200 nM on SYK; less than 20 nM at EGFR mutant Del19/T790M; less than 20 nM in test [1].

For `C=CC(=O)Nc1cc(Nc2ncc(C)c(-n3cc(CN4CC(O)C4)c(C)n3)n2)c(OC)cc1N1CCCCC1` [Compound 30, N-(5-(4-(4-((3-hydroxyazetidin-1-yl)methyl)-3-methyl-1H-pyrazol-1-yl)-5-methylpyrimidin-2-ylamino)-4-methoxy-2-(piperidin-1-yl)phenyl)acrylamide], the IC50 was less than 20 nM on EGFR mutant L858R/T790M; less than 20 nM at EGFR mutant T790M; less than 20 nM on EGFR mutant L858R; 20 to 200 nM at SYK; less than 20 nM on EGFR mutant Del19/T790M; less than 20 nM in test [1].

As for `C=CC(=O)Nc1cc(Nc2nccc(-n3cc(CN4C[C@H](O)[C@H](OC)C4)c(C4CC4)n3)n2)c(OC)cc1N1CCOCC1` [Compound 56, N-(5-(4-(3-cyclopropyl-4-(((3S,4R)-3-hydroxy-4-methoxypyrrolidin-1-yl)methyl)-1H-pyrazol-1-yl)pyrimidin-2-ylamino)-4-methoxy-2-morpholinophenyl)acrylamide], the IC50 at EGFR mutant L858R/T790M is less than 20 nM; against EGFR mutant T790M, less than 20 nM; on EGFR mutant L858R, less than 20 nM; at SYK, more than 1000 nM; on EGFR mutant Del19/T790M, less than 20 nM; in test [1], less than 20 nM.

As to `C=CC(=O)Nc1cc(Nc2nccc(-n3cc(CN4CCC4)c(C(C)C)n3)n2)c(OC)cc1N(C)C1COC1` [Compound 115], the IC50 on EGFR mutant L858R/T790M was less than 20 nM; against EGFR mutant T790M, less than 20 nM; at EGFR mutant L858R, less than 20 nM; on SYK it was more than 1000 nM; on EGFR mutant Del19/T790M it was less than 20 nM; in test [1], less than 20 nM.

Consider `C=CC(=O)Nc1cc(Nc2nccc(-n3cc(CN4CCC4)c(-c4ccccc4)n3)n2)c(OC)cc1N(C)CCOC` [Compound 95, N-(5-(4-(4-(azetidin-1-ylmethyl)-3-phenyl-1H-pyrazol-1-yl)pyrimidin-2-ylamino)-4-methoxy-2-((2-methoxyethyl)(methyl)amino)phenyl)acrylamide], for which the IC50 on EGFR mutant L858R/T790M is less than 20 nM; against EGFR mutant T790M, less than 20 nM; on EGFR mutant L858R it was less than 20 nM; on SYK it was more than 1000 nM; at EGFR mutant Del19/T790M, less than 20 nM; in test [1], less than 20 nM.

Take `C=CC(=O)Nc1cc(Nc2nccc(-n3cc(CN4CCC4)c(-c4ccccc4)n3)n2)c(OC)cc1N1CCN(C(C)=O)CC1` [Compound 134, N-(2-(4-acetylpiperazin-1-yl)-5-(4-(4-(azetidin-1-ylmethyl)-3-phenyl-1H-pyrazol-1-yl)pyrimidin-2-ylamino)-4-methoxyphenyl)acrylamide]: the IC50 is less than 20 nM at EGFR mutant L858R/T790M; less than 20 nM on EGFR mutant T790M; less than 20 nM on EGFR mutant L858R; 201 to 1000 nM on SYK; less than 20 nM at EGFR mutant Del19/T790M; less than 20 nM in test [1].

With `C=CC(=O)Nc1cc(Nc2nccc(-n3cc(CN4CCC4)c(C4CC4)n3)n2)c(OC)cc1N(C)CCOC` [Compound 107, N-(5-(4-(4-(azetidin-1-ylmethyl)-3-cyclopropyl-1H-pyrazol-1-yl)pyrimidin-2-ylamino)-4-methoxy-2-((2-methoxyethyl)(methyl)amino)phenyl)acrylamide], the IC50 was less than 20 nM on EGFR mutant L858R/T790M; less than 20 nM against EGFR mutant T790M; less than 20 nM at EGFR mutant L858R; 20 to 200 nM against SYK; less than 20 nM at EGFR mutant Del19/T790M; less than 20 nM in test [1].

Regarding `C=CC(=O)Nc1cc(Nc2nccc(-n3cc(CN(C)C)c(-c4ccccc4)n3)n2)c(OC)cc1N(C)C` [Compound 83, N-(2-(dimethylamino)-5-(4-(4-((dimethylamino)methyl)-3-phenyl-1H-pyrazol-1-yl)pyrimidin-2-ylamino)-4-methoxyphenyl)acrylamide], the IC50 on EGFR mutant L858R/T790M was less than 20 nM; at EGFR mutant T790M it was less than 20 nM; on EGFR mutant L858R, less than 20 nM; on SYK, more than 1000 nM; at EGFR mutant Del19/T790M, less than 20 nM; in test [1] it was less than 20 nM.

For the compound `C=CC(=O)Nc1cc(Nc2ncc(C)c(-n3cc(CN4C[C@H](O)[C@H](OC)C4)cn3)n2)c(OC)cc1N1CCOCC1` [Compound 21, N-(5-(4-(4-(((3S,4R)-3-hydroxy-4-methoxypyrrolidin-1-yl)methyl)-1H-pyrazol-1-yl)-5-methylpyrimidin-2-ylamino)-4-methoxy-2-morpholinophenyl)acrylamide], the IC50 at EGFR mutant L858R/T790M was less than 20 nM; on EGFR mutant T790M, less than 20 nM; at EGFR mutant L858R, 20 to 200 nM; on SYK, 201 to 1000 nM; at EGFR mutant Del19/T790M it was less than 20 nM; in test [1], less than 20 nM.

Regarding `C=CC(=O)Nc1cc(Nc2nccc(-n3cc(CN(C)C)c(-c4ccoc4)n3)n2)c(OC)cc1N1CCOCC1` [Compound 127, N-(5-(4-(4-((dimethylamino)methyl)-3-(furan-3-yl)-1H-pyrazol-1-yl)pyrimidin-2-ylamino)-4-methoxy-2-morpholinophenyl)acrylamide], the IC50 on EGFR mutant L858R/T790M is less than 20 nM; at EGFR mutant T790M, less than 20 nM; at EGFR mutant L858R, less than 20 nM; at SYK it was 201 to 1000 nM; at EGFR mutant Del19/T790M, less than 20 nM; in test [1] it was less than 20 nM.

Consider `C=CC(=O)Nc1cc(Nc2nccc(-n3cc(CN4CC(O)C4)c(C)n3)n2)c(OC)cc1N1CCOCC1` [Compound 15, N-(5-(4-(4-((3-hydroxyazetidin-1-yl)methyl)-3-methyl-1H-pyrazol-1-yl)pyrimidin-2-ylamino)-4-methoxy-2-morpholinophenyl)acrylamide], for which the IC50 on EGFR mutant L858R/T790M is less than 20 nM; at EGFR mutant T790M, less than 20 nM; on EGFR mutant L858R, less than 20 nM; against SYK, 201 to 1000 nM; at EGFR mutant Del19/T790M, less than 20 nM; in test [1] it was less than 20 nM.

Regarding `C=CC(=O)Nc1cc(Nc2nccc(-n3cc(CN(C)C)c(C(C)C)n3)n2)c(OC)cc1N(C)C1COC1` [Compound 114, N-(5-(4-(4-((dimethylamino)methyl)-3-isopropyl-1H-pyrazol-1-yl)pyrimidin-2-ylamino)-4-methoxy-2-(methyl(oxetan-3-yl)amino)phenyl)acrylamide], the IC50 is less than 20 nM at EGFR mutant L858R/T790M; less than 20 nM on EGFR mutant T790M; less than 20 nM on EGFR mutant L858R; 201 to 1000 nM against SYK; less than 20 nM on EGFR mutant Del19/T790M; less than 20 nM in test [1].

Take `COc1cc(N2CCOCC2)c(N)cc1Nc1nccc(-n2cc(CN(C)C)c(-c3ccccc3)n2)n1` [Compound 153, N1-(4-(4-((dimethylamino)methyl)-3-phenyl-1H-pyrazol-1-yl)pyrimidin-2-yl)-6-methoxy-4-morpholinobenzene-1,3-diamine, reference compound]: the IC50 (on EGFR mutant L858R/T790M; at EGFR mutant T790M; at EGFR mutant L858R; on SYK; on EGFR mutant Del19/T790M; in test [1]) was more than 1000 nM each time.

For the origin of these results see patent USRE50528E1, “Compounds and compositions for modulating EGFR mutant kinase activities” (Yuhan Corporation, priority 2014, dated 2025).
